Test results reported in patent US5292733A, “Cephalosporin compounds” (Lucky Limited, priority 1991, dated 1994).
≈ marks a conversion by molar mass, not a printed value.

Assays:
Test in all cases: Antibacterial activity MIC, two-fold agar dilution
Type in all cases: cell-based
[1] = system: Acinetobacter calcoaceticus ATCC 15473; conditions: ATCC15473; Acinetobacter calcoaceticus ATCC 15473; Muller-Hinton agar, 37° C., 20 hours; read-out: Antibacterial Activity MIC
Procedure: (§1) These MIC values were taken by employing a two-fold dilution method: that is, two-fold serial dilutions of each of the test compounds were made and dispersed in a Muller-Hinton agar medium; 2 μl of the standard test strain which had the 10^7 CFU(Colony Forming Unit) per ml was inoculated on the medium; and these were incubated at 37° C. for 20 hours. The results of the MIC tests are shown Table 1.

[2] = system: Bacillus cereus ATCC 11778; conditions: ATCC11778; Bacillus cereus ATCC 11778; Muller-Hinton agar, 37° C., 20 hours; read-out: Antibacterial Activity MIC
Procedure: as §1

[3] = system: Bacillus megaterium ATCC 9885; conditions: Priestia megaterium, ATCC9885; Bacillus megaterium ATCC 9885; Muller-Hinton agar, 37° C., 20 hours; read-out: Antibacterial Activity MIC
Procedure: as §1

[4] = system: Citrobacter freundii ATCC 8090; conditions: ATCC8090; Citrobacter freundii ATCC 8090; Muller-Hinton agar, 37° C., 20 hours; read-out: Antibacterial Activity MIC
Procedure: as §1

[5] = system: Enterobacter aerogenes ATCC 29751; conditions: Klebsiella aerogenes, ATCC29751; Enterobacter aerogenes ATCC 29751; Muller-Hinton agar, 37° C., 20 hours; read-out: Antibacterial Activity MIC
Procedure: as §1

[6] = system: Enterobacter cloacae ATCC 27508; conditions: ATCC27508; Enterobacter cloacae ATCC 27508; Muller-Hinton agar, 37° C., 20 hours; read-out: Antibacterial Activity MIC
Procedure: as §1

[7] = system: Escherichia coli ATCC 10536; conditions: ATCC10536, Muller-Hinton agar, 37° C., 20 hours
Procedure: as §1

[8] = system: Escherichia coli ATCC 25922; conditions: ATCC25922, Muller-Hinton agar, 37° C., 20 hours
Procedure: as §1

[9] = system: Klebsiella pneumoniae ATCC 10031; conditions: ATCC10031; Klebsiella pneumoniae ATCC 10031; Muller-Hinton agar, 37° C., 20 hours; read-out: Antibacterial Activity MIC
Procedure: as §1

[10] = system: Micrococcus luteus ATCC 9341; conditions: ATCC9341; Micrococcus luteus ATCC 9341; Muller-Hinton agar, 37° C., 20 hours; read-out: Antibacterial Activity MIC
Procedure: as §1

[11] = system: Morganella morganii ATCC 8076h; conditions: ATCC8076H, Muller-Hinton agar, 37° C., 20 hours
Procedure: as §1

[12] = system: Proteus mirabilis ATCC 25933; conditions: ATCC25933; Proteus mirabilis ATCC 25933; Muller-Hinton agar, 37° C., 20 hours; read-out: Antibacterial Activity MIC
Procedure: as §1

[13] = system: Proteus vulgaris ATCC 6059; conditions: ATCC6059; Proteus vulgaris ATCC 6059; Muller-Hinton agar, 37° C., 20 hours; read-out: Antibacterial Activity MIC
Procedure: as §1

[14] = system: Providencia rettgeri ATCC 9250; conditions: ATCC9250, Muller-Hinton agar, 37° C., 20 hours
Procedure: as §1

[15] = system: Pseudomonas aeruginosa ATCC 10145; conditions: ATCC10145; Pseudomonas aeruginosa ATCC 10145; Muller-Hinton agar, 37° C., 20 hours; read-out: Antibacterial Activity MIC
Procedure: as §1

[16] = system: Pseudomonas aeruginosa ATCC 25619; conditions: ATCC25619; Pseudomonas aeruginosa ATCC 25619; Muller-Hinton agar, 37° C., 20 hours; read-out: Antibacterial Activity MIC
Procedure: as §1

[17] = system: Pseudomonas aeruginosa ATCC 27853; conditions: ATCC27853; Pseudomonas aeruginosa ATCC 27853; Muller-Hinton agar, 37° C., 20 hours; read-out: Antibacterial Activity MIC
Procedure: as §1

[18] = system: Salmonella typhimurium ATCC 14028; conditions: Salmonella enterica; Salmonella typhimurium ATCC 14028; Muller-Hinton agar, 37° C., 20 hours; read-out: Antibacterial Activity MIC
Procedure: as §1

[19] = system: Serratia marcescens ATCC 27117; conditions: ATCC27117; Serratia marcescens ATCC 27117; Muller-Hinton agar, 37° C., 20 hours; read-out: Antibacterial Activity MIC
Procedure: as §1

[20] = system: Shigella flexneri ATCC 11836; conditions: ATCC11836, Muller-Hinton agar, 37° C., 20 hours
Procedure: as §1

[21] = system: Shigella sonnei ATCC 11060; conditions: ATCC11060, Muller-Hinton agar, 37° C., 20 hours
Procedure: as §1

[22] = system: Staphylococcus aureus ATCC 10537; conditions: ATCC10537; Staphylococcus aureus ATCC 10537; Muller-Hinton agar, 37° C., 20 hours; read-out: Antibacterial Activity MIC
Procedure: as §1

[23] = system: Staphylococcus aureus ATCC 6538p; conditions: ATCC6538P; Staphylococcus aureus ATCC 6538p; Muller-Hinton agar, 37° C., 20 hours; read-out: Antibacterial Activity MIC
Procedure: as §1

[24] = system: Staphylococcus epidermidis ATCC 12228; conditions: ATCC12228; Staphylococcus epidermidis ATCC 12228; Muller-Hinton agar, 37° C., 20 hours; read-out: Antibacterial Activity MIC
Procedure: as §1

[25] = system: Streptococcus faecalis ATCC 29212; conditions: Enterococcus faecalis, ATCC29212; Streptococcus faecalis ATCC 29212; Muller-Hinton agar, 37° C., 20 hours; read-out: Antibacterial Activity MIC
Procedure: as §1

Row | Structure (SMILES) | MIC [1] | MIC [2] | MIC [3] | MIC [4] | MIC [5] | MIC [6] | MIC [7] | MIC [8] | MIC [9] | MIC [10] | MIC [11] | MIC [12] | MIC [13] | MIC [14] | MIC [15] | MIC [16] | MIC [17] | MIC [18] | MIC [19] | MIC [20] | other results
1 | CC[n+]1c(N)cc(SCC2=C(C(=O)[O-])N3C(=O)[C@@H](NC(=O)/C(=N\OC)c4csc(N)n4)[C@H]3SC2)nc1N [Compound I-22, (6R,7)-7-[(Z)-2-(2-aminothiazol-4-yl)-2-(methoxyimino)acetamido]-3-(2,6-diamino-1-ethylpyrimidinium-4-yl)thiomethyl-3-cephem-4-carboxylate] | 8 µg/mL (≈ 14.1 µM) | 64 µg/mL (≈ 113 µM) | 0.25 µg/mL (≈ 0.442 µM) | 0.25 µg/mL (≈ 0.442 µM) | 0.25 µg/mL (≈ 0.442 µM) | ≤ 0.008 µg/mL | 0.063 µg/mL (≈ 0.111 µM) | 0.063 µg/mL (≈ 0.111 µM) | ≤ 0.008 µg/mL | 0.031 µg/mL (≈ 0.0548 µM) | ≤ 0.008 µg/mL | 0.25 µg/mL (≈ 0.442 µM) | 0.25 µg/mL (≈ 0.442 µM) | ≤ 0.008 µg/mL | 8 µg/mL (≈ 14.1 µM) | 1 µg/mL (≈ 1.77 µM) | 2 µg/mL (≈ 3.54 µM) | 0.13 µg/mL (≈ 0.23 µM) | 0.25 µg/mL (≈ 0.442 µM) | 0.063 µg/mL (≈ 0.111 µM) | MIC [21]: 0.031 µg/mL (≈ 0.0548 µM); MIC [22]: 0.5 µg/mL (≈ 0.884 µM); MIC [23]: 0.25 µg/mL (≈ 0.442 µM); MIC [24]: 0.25 µg/mL (≈ 0.442 µM); MIC [25]: 8 µg/mL (≈ 14.1 µM)
2 | CO/N=C(\C(=O)N[C@@H]1C(=O)N2C(C(=O)O)=C(COC(C)=O)CS[C@H]12)c1csc(N)n1 [Cefotaxime, reference compound] | 8 µg/mL (≈ 17.6 µM) | 64 µg/mL (≈ 141 µM) | 0.063 µg/mL (≈ 0.138 µM) | 0.063 µg/mL (≈ 0.138 µM) | 2 µg/mL (≈ 4.39 µM) | ≤ 0.008 µg/mL | 0.031 µg/mL (≈ 0.0681 µM) | 0.031 µg/mL (≈ 0.0681 µM) | ≤ 0.008 µg/mL | 0.031 µg/mL (≈ 0.0681 µM) | ≤ 0.008 µg/mL | 0.031 µg/mL (≈ 0.0681 µM) | 0.031 µg/mL (≈ 0.0681 µM) | ≤ 0.008 µg/mL | 16 µg/mL (≈ 35.1 µM) | 1 µg/mL (≈ 2.2 µM) | 8 µg/mL (≈ 17.6 µM) | 0.13 µg/mL (≈ 0.285 µM) | 0.13 µg/mL (≈ 0.285 µM) | 0.016 µg/mL (≈ 0.0351 µM) | MIC [21]: 0.063 µg/mL (≈ 0.138 µM); MIC [22]: 1 µg/mL (≈ 2.2 µM); MIC [23]: 4 µg/mL (≈ 8.78 µM); MIC [24]: 1 µg/mL (≈ 2.2 µM); MIC [25]: > 128 µg/mL
3 | CC[n+]1c(SCC2=C(C(=O)[O-])N3C(=O)[C@@H](NC(=O)/C(=N\OC(C)C(=O)O)c4csc(N)n4)[C@H]3SC2)cc(N)nc1N (stereo partly drawn) [Compound I-4, (6R,7R)-7-[(Z)-2-(2-aminothiazol-4-yl)-2-(R,S-carboxyeth-1-oxyimino)acetamido]-3-(2,6-diamino-3-ethylpyrimidinium-4-yl)thiomethyl-3-cephem-4-carboxylate] | 4 µg/mL (≈ 6.41 µM) | 64 µg/mL (≈ 103 µM) | 0.25 µg/mL (≈ 0.401 µM) | 0.13 µg/mL (≈ 0.208 µM) | 1 µg/mL (≈ 1.6 µM) | 0.016 µg/mL (≈ 0.0257 µM) | 0.13 µg/mL (≈ 0.208 µM) | 0.13 µg/mL (≈ 0.208 µM) | 0.031 µg/mL (≈ 0.0497 µM) | 0.5 µg/mL (≈ 0.802 µM) | ≤ 0.008 µg/mL | 0.31 µg/mL (≈ 0.497 µM) | 0.063 µg/mL (≈ 0.101 µM) | ≤ 0.008 µg/mL | 2 µg/mL (≈ 3.21 µM) | 1 µg/mL (≈ 1.6 µM) | 2 µg/mL (≈ 3.21 µM) | 0.5 µg/mL (≈ 0.802 µM) | 0.13 µg/mL (≈ 0.208 µM) | 0.031 µg/mL (≈ 0.0497 µM) | MIC [21]: 0.25 µg/mL (≈ 0.401 µM); MIC [22]: 4 µg/mL (≈ 6.41 µM); MIC [23]: 8 µg/mL (≈ 12.8 µM); MIC [24]: 1 µg/mL (≈ 1.6 µM); MIC [25]: > 128 µg/mL
